Source: patent US20220273752A1, “MODULATION OF DENDRITIC CELL FUNCTION BY THE PHOSPHOLIPID MESSENGER LPA” (Cornell University, priority 2019, published 2022)

Assays:
[1] = test system: PERK in human monocyte-derived DCs; experiment: RT-qPCR gene expression in human monocyte-derived DCs treated with LPA and TM, with or without PERK inhibitor; assay type: cell-based; conditions: LPA 100 μM and TM 1 μg/ml, 6 hours; RT-qPCR relative to ACTB
Experimental: Monocyte-derived DCs were generated from peripheral human blood and cells were treated for 6 hours with LPA (100 μM), TM (1 μg/ml) or the combination of both, in the presence or absence of the PERK inhibitor AMG PERK 44. Gene expression was subsequently determined by RT-qPCR relative to endogenous ACTB in each sample. FIG. 6A graphically illustrates expression of the PERK-dependent ER stress response gene DDIT3 in monocyte-derived DCs with or without treatment by AMG PERK 44. FIG. 6B graphically illustrates expression of IL6 in monocyte-derived DCs with or without treatment by AMG PERK 44. FIG. 6C graphically illustrates expression of IL1B in monocyte-derived DCs with or without treatment by AMG PERK 44. FIG. 6D graphically illustrates expression of PTGS2 in monocyte-derived DCs with or without treatment by AMG PERK 44. FIG. 6E graphically illustrates expression of VEGFA in monocyte-derived DCs with or without treatment by AMG PERK 44.
(§1) The structure of AMG PERK 44 is shown below as a HCl salt.

PERK in murine DCs = experiment: PERK inhibitor in murine DCs in vitro (data not shown); assay type: cell-based
From the text: as §1

[2] = test system: ovarian cancer cells that overexpress VEGFA and Defb29 (ID8-Defb29/Vegf-A); experiment: Anti-tumor efficacy (host survival) in mice bearing ID8-Defb29/Vegf-A ovarian cancer; assay type: in vivo, mouse; conditions: mice bearing metastatic ovarian cancer
From the text: FIG. 9A is a schematic diagram illustrating the treatment of female mice that were intraperitoneally injected with ID8 ovarian cancer cells overexpressing VEGFA and Def29b. FIG. 9B graphically illustrates host survival as monitored over time of the mice treated as described for FIG. 9A. ***P<0.001. ****P<0.0001.
FIG. 20A schematically illustrates the experimental scheme and treatment regimen employed.
FIG. 20B graphically illustrates the percent survival for the groups described in FIG. 20A. […] FIG. 20C graphically illustrates ascites accumulation over time of the groups of animals treated as described in FIG. 20A. **P<0.001, ***P<0.001. ****P<0.0001.
Consequently, production of this bioactive lipid mediator limits the effects of immunotherapies such as Poly-(I:C) treatment, and of novel chemotherapeutic interventions such as PARP inhibitors. Targeting the autotaxin-LPA pathway may therefore be beneficial to control ovarian cancer progression and unleash protective anti-tumor immune responses that extend host survival. […] Therefore, our findings indicate that autotaxin inhibitors could be repurposed to maximize the efficacy of PARP inhibitors and awaken protective type-I IFN responses in ovarian cancer patients.
Methods similar to those described above were used to evaluate the anti-tumor effects of various autotaxin and LPA receptor inhibitors. The inhibitors were administered to mice that had received ovarian cancer cells that overexpress VEGFA and Defb29 (ID8-Defb29/Vegf-A).

[3] = test system: tumor-associated dendritic cells (tDCs); experiment: Ex vivo treatment of ovarian cancer ascites, gene expression in tumor-associated DCs; assay type: cell-based, mouse; conditions: ascites incubated ex vivo with 200 nM or 1000 nM, DCs isolated 24 h later; relative to Actb
From the text: FIG. 7A-7B illustrate that conditional PERK deletion in CD11c^+ immune cells (Perk^f/f Cd11c-Cre) delays metastatic ovarian cancer progression. FIG. 7A illustrates survival of female mice of the indicated genotypes (n=8/group) that were intraperitoneally challenged with parental ID8 ovarian cancer cells and host survival was monitored over time. *P<0.05. ****P<0.0001. n=8/group. FIG. 7B graphically illustrates survival of female mice of the indicated genotypes (n=8/group) that were intraperitoneally challenged with variant ovarian cancer cells that are highly aggressive and overexpress VEGFA and Defb29 (ID8-Defb29/Vegf-A). Host survival was monitored over time. *P<0.05. ****P<0.0001. n=8/group. FIG. 8A-8D graphically illustrate expression of LPA/ER stress-induced tumorigenic and immunomodulatory genes by tumor-associated dendritic cells (tDCs) present in ovarian cancer ascites can be diminished using a small-molecule inhibitor targeting autotaxin.

[4] = test system: ID8-based ovarian cancer cells (Enpp2 sgRNA or control sgRNA); experiment: Host survival of mice bearing autotaxin-deficient (Enpp2 sgRNA) or control sgRNA ID8-based ovarian cancer; assay type: in vivo, mouse; conditions: for host survival in mice bearing autotaxin-deficient ovarian cancer: Enpp2 sgRNA tumors, compared with all other experimental groups
From the text: FIG. 17A-17C illustrate host survival and disease progression in mice bearing autotaxin-deficient ovarian cancer (Enpp2 sgRNA) and treated with the TLR3 agonist Poly(1:C). FIG. 17A schematically illustrates the experimental scheme and treatment regimen. FIG. 17B graphically illustrates the survival of the indicated groups when treated as described in FIG. 17A. […] FIG. 17C graphically illustrates ascites accumulation over time of the groups of animals treated as described in FIG. 17A. ****P<0.0001.
FIG. 18A-18C illustrate that blockade of the type-I IFN receptor 1 (IFNAR1) abrogates the therapeutic effects Poly-(I:C) in mice bearing autotaxin-deficient ovarian tumors. FIG. 18A schematically illustrates the experimental scheme and treatment regimen employed. FIG. 18B graphically illustrates the percent survival for the groups described in FIG. 18A. […] FIG. 18C graphically illustrates ascites accumulation over time of the groups of animals treated as described in FIG. 18A. ***P<0.0005, ****P<0.0001.
FIG. 19A-19C illustrate the effects of the PARP inhibitor Talazoparib in mice bearing autotaxin-deficient ovarian cancer cells. FIG. 19A schematically illustrates the experimental scheme and treatment regimen employed. FIG. 19B graphically illustrates the percent survival for the groups described in FIG. 19A. […] FIG. 19C graphically illustrates ascites accumulation over time of the groups of animals treated as described in FIG. 19A. **P<0.001, ***P<0.0005, ****P<0.0001.
To define the in vivo relevance of the findings related to type-I IFN expression, the inventors abrogated the gene encoding the LPA-generating enzyme autotaxin (Enpp2) in ID8-based ovarian cancer cells lines using CRISPR-Cas9.
Based on these key findings, experiments were then performed to determine whether treatment with the TLR3 agonist Poly(I:C), which can enhance type-I IFN immune responses, could increase survival in mice bearing autotaxin-deficient ovarian tumors.
To determine whether these effects are really mediated by enhanced type-I IFN signaling, mice were treated with anti-IFNAR1 blocking antibodies. […]

Cc1ccc2cc(-c3c(C)ccc(C(=O)c4c(-c5ccccc5)n(C)n(-c5ccccc5)c4=O)c3N)ccc2n1 [AMG PERK 44]
induction of pro-tumoral factors (IL6, IL1B, PTGS2, VEGFA) in LPA-exposed human DCs undergoing ER stress [1]: prevents induction of pro-tumoral factors | effect compared with PERK deletion in murine DCs (PERK in murine DCs): recapitulate the effects of PERK deletion

CCc1nc2c(C)cc(N3CCN(CC(=O)N4CC(O)C4)CC3)cn2c1N(C)c1nc(-c2ccc(F)cc2)c(C#N)s1 [GLPG1690]
host survival, single treatment ([2]; single agent): modestly extended host survival | host survival, combined with Talazoparib ([2]; with PARP inhibitor Talazoparib (FIG. 20)): significantly improved the therapeutic effects of Talazoparib | host survival, combined with chemotherapy ([2]; with chemotherapy (FIG. 9)): significantly enhanced the effects of chemotherapy | expression of LPA/ER stress-induced Il1b, Il6, Ptgs2 and Vegf-α in tumor-associated DCs [3]: decreased the expression

Cn1ncnc1[C@H]1c2n[nH]c(=O)c3cc(F)cc(c23)N[C@@H]1c1ccc(F)cc1 [Talazoparib]
host survival in mice bearing autotaxin-deficient ovarian cancer [4]: significant increase in host survival

Poly(I:C)
host survival in mice bearing autotaxin-deficient ovarian cancer [4]: remarkable increase in survival | host survival, treatment alone ([4]; mice bearing control sgRNA ovarian cancer): extended host survival
